The results in this text go back to PMC3463238 (Toxicology letters, 2012).

Data set [1] concerns CYP2E1 transgenic cells (h2E1). The following applies: for Decrease in cell viability relative to vehicle group: 24 h, 100 μM.
The subject of data set [2] is cellular proteins of CYP2E1 cells. The following applies: human, 24 h, 100 μM.
In a further data set the target is recombinant human CYP2E1 (Homo sapiens, UniProt P05181). The following applies: pH 7.4.
A short description of data set [3]: in vitro. The following applies: human.
The nature of data set [4]: in vitro. The following applies: human. This is another data set of the same source.
Data set [5] is described as follows: Reactivity of styrene oxide and halogenated styrene oxides to cysteamine. In kind it is physicochemical. The following applies: oxide 1.0 μM, cysteamine 100 μM, phosphate buffer, 37 °C.
The subject of data set [6] is cellular proteins of wild-type cells. The following applies: human, 24 h, 100 μM.
The nature of data set [7]: Cellular GSH contents in CYP2E1 cells. The following applies: human.
The subject of data set [8] is cellular proteins of CYP2E1 cells. Put plainly: Cellular protein covalent binding of 14C-labeled styrenes in CYP2E1 cells. The following applies: 14C-labeled compound 100 μM, 24 h.
Data set [9] can be described thus: Cytotoxicity in CYP2E1 transgenic cells. The following applies: human.
Data set [10] in a line: Observed stability of the compound. The class given is physicochemical.

Molecules are shown by their SMILES. Where two headings read alike, the source gives them in different places. Marks after values point to notes of the source that are not given here.

recombinant human CYP2E1, sequence (P05181 whole entry): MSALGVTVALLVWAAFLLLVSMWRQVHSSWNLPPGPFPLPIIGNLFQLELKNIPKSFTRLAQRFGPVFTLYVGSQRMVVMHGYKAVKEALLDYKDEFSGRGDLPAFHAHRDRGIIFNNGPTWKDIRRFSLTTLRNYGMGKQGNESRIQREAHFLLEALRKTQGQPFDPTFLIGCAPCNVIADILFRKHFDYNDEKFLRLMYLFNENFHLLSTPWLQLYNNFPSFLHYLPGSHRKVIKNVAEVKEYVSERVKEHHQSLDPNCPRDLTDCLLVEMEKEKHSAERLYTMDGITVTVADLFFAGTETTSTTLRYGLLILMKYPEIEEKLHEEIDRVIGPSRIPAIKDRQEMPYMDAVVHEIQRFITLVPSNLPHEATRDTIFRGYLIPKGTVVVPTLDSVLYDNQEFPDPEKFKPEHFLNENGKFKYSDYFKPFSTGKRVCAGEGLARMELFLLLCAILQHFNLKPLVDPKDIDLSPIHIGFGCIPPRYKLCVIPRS

For orientation: viability means the share of living cells, or the viability signal relative to a control. Low values mean a greater loss of cells, high ones better survival. For `C=Cc1ccc(F)cc1` [F-ST, 4-fluorostyrene], the “Toxicity to CYP2E1 cells compared with another compound” value in data set [1] is listed as “little difference in toxicity”. In addition, the “Binding load (radioactivity bound to cellular proteins)” value in data set [2] is recorded as 2.27 nmol/mg protein. Also, the “Bioactivation index (k × Vmax/Km)” value at recombinant human CYP2E1 is on record as 10.4 ± 0.64 ^a. In the data set “in vitro [3]”, this compound came in with a viability at 24 h, 100 µM of 78.8 ± 3.2%. This compound returned an activity at 3 h, 100 µM in the data set “in vitro [4]” of 82.4 ± 2.2%.

For `Clc1ccc(C2CO2)cc1` (stereo not drawn) [4-chlorostyrene oxide], in data set [5], the “Rate constant for production of the cysteamine adducts” value (“Rate constant for production” below) came out at 16.1 ± 2.08 min⁻¹.

Regarding `Fc1ccc(C2CO2)cc1` (stereo not drawn) [4-fluorostyrene oxide], the “Rate constant for production” value in data set [5] was determined as 15.7 ± 1.57 min⁻¹.

Turning to `c1ccc(C2CO2)cc1` (stereo not drawn) [styrene oxide], the “Rate constant for production” value in data set [5] is 13.4 ± 1.88 min⁻¹.

Take `Brc1ccc(C2CO2)cc1` (stereo not drawn) [4-bromostyrene oxide]: the “Rate constant for production” value in [5] was found to be 29.3 ± 3.19 min⁻¹.

With `C=Cc1ccc(Br)cc1` [Br-ST, 4-bromostyrene], the “Decrease in cell viability relative to vehicle group” value in data set [1] (human) worked out at 39.6%. In addition, in [2], the “Binding load (radioactivity bound to cellular proteins)” value came out at 6.17 nmol/mg protein. Moreover, the “Fold lower radioactivity bound to proteins in wild-type cells than CYP2E1 cells” value in data set [6] amounted to 5 fold. Besides, the “Bioactivation index (k × Vmax/Km)” value at recombinant human CYP2E1 is listed as 31.9 ± 3.48 ^c. Also, the viability at 24 h, 100 µM in “in vitro [3]” came to 39.6 ± 4.1%. This compound also returned an activity at 3 h, 100 µM in the data set “in vitro [4]” of 61 ± 6.5%.

`C=Cc1ccc(Cl)cc1` [Cl-ST, 4-chlorostyrene]: in [1] (human), the “Decrease in cell viability relative to vehicle group” value is reported as 57.7%. The “Bioactivation index (k × Vmax/Km)” value on recombinant human CYP2E1 is reported as 15.8 ± 2.03 ^b. The same compound had a viability at 24 h, 100 µM in the data set “in vitro [3]” of 57.7 ± 9.9%. In the data set “in vitro [4]”, this compound came in with an activity at 3 h, 100 µM of 71.2 ± 5.8%.

Consider `C=Cc1ccccc1` [ST, Styrene], for which, in [7], the activity at 3 h, 100 µM was 83.7 ± 2.1%. Besides, in data set [8], the “Binding load (radioactivity bound to cellular proteins)” value is 2.02 nmol/mg protein. Moreover, the viability at 24 h, 100 µM in [9] stood at 80 ± 3%.

For `C=Cc1ccc(I)cc1` [4-iodostyrene], the “Stability” value in data set [10] is on record as “unstableness”. For the same compound, the “Toxicity to CYP2E1 cells compared with another compound” value in [1] (human) is recorded as “more toxic than 4-bromostyrene”.
